Data from ChEMBL document CHEMBL2169801, “Development of o-chlorophenyl substituted pyrimidines as exceptionally potent aurora kinase inhibitors” (J Med Chem, 2012).
≈ marks a conversion by molar mass, not a printed value.

Test: not given
Conditions: buffer

Q: With `O=C(O)c1ccc(Nc2nccc(Nc3ccccc3F)n2)cc1` as the compound, how does the solubility read?
A: Insoluble

Q: With `O=C(O)c1ccc(Nc2nccc(Nc3ccccc3Cl)n2)cc1O` as the compound, how does the solubility read?
A: Insoluble

Q: With `O=C(O)c1ccc(Nc2nccc(Nc3ccccc3Cl)n2)cc1` as the compound, how does the solubility read?
A: Insoluble

Q: Which solubility does the source give for `O=C(O)c1ccc(Nc2ncc(F)c(Nc3ccccc3C(=O)O)n2)cc1` here?
A: Insoluble

Test: physchem
Conditions: buffer, pH 7.4

Q: With `Fc1cnc(Nc2ccc(-c3nnn[nH]3)cc2)nc1Nc1ccccc1Cl` as the compound, how does the solubility read?
A: 49 µg/mL (≈ 128 µM)

Q: For `Clc1ccccc1Nc1ccnc(Nc2ccc(-c3nnn[nH]3)cc2)n1`, which solubility is on record?
A: 49 µg/mL (≈ 134 µM)

Q: Which solubility does the source give for `Oc1cc(Nc2ncc(F)c(Nc3ccccc3Cl)n2)ccc1-c1nnn[nH]1` here?
A: 49 µg/mL (≈ 123 µM)

Q: Which solubility does the source give for `Clc1ccccc1Nc1nc(Nc2ccc(-c3nnn[nH]3)cc2)ncc1Cl` here?
A: 49 µg/mL (≈ 123 µM)
